Results reported in the supplement of paper PMC8617591.

Columns and labels:
[1] = system: Mycobacterium tuberculosis Erdman (autoluminescent); assay: total FIC50 (Loewe) at 50% inhibition, three-drug combination (log2); higher = more antagonistic
Experimental: (§1)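 DiaMOND equipotent three-drug combination dose responses (10 doses, 1.5- or 2-fold spacing, centred on IC90) against autoluminescent M. tuberculosis Erdman in 8 in vitro models. Read-out is OD600, or luminescence for the intracellular and dormancy models, normalised to untreated wells. Hill-fit Einf, AUC25 and GRinf are potency metrics; FIC50 and FIC90 are total Loewe fractional inhibitory concentrations as log2 (negative = synergy).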

[2] = system: Mycobacterium tuberculosis Erdman (autoluminescent); assay: total FIC90 (Loewe) at 90% inhibition, three-drug combination (log2); higher = more antagonistic
Experimental: as §1

[3] = system: Mycobacterium tuberculosis Erdman (autoluminescent); assay: Einf, fitted maximum growth inhibition of three-drug combination (fraction); higher = stronger maximal inhibition
Experimental: as §1

[4] = system: Mycobacterium tuberculosis Erdman (autoluminescent); assay: AUC25, normalised area under dose response up to IC25 (three-drug combination) (fraction (0-1)); higher = more potent at low dose
Experimental: as §1

[5] = system: Mycobacterium tuberculosis Erdman (autoluminescent); assay: GRinf, maximum normalised growth rate inhibition (three-drug combination) (unitless (-1 to 1)); higher = less effect (negative = killing)
Experimental: as §1

CC[C@@H](CO)NCCN[C@@H](CC)CO [ethambutol] + CC(=O)NC[C@H]1CN(c2ccc(N3CCOCC3)c(F)c2)C(=O)O1 [linezolid] + NC(=O)c1cnccn1 [pyrazinamide]
Details | AUC25, [4] | Einf, [3] | GRinf, [5] | total FIC50, [1] | total FIC90, [2]
in vitro model: acidic pH 5.7, time point: constant (~7 days, model-specific) | 0.087 | 0.835 | -0.314 | 0.0711 | –
in vitro model: acidic pH 5.7, time point: terminal (~4-5 doublings, model-specific) | 0.0645 | 0.963 | -0.245 | 1.01 | -1.27
in vitro model: intracellular J774, time point: constant = terminal | – | 0.966 | -0.526 | – | 0.433

Details | AUC25, [4] | Einf, [3] | GRinf, [5] | total FIC50, [1] | total FIC90, [2]
in vitro model: butyrate, time point: constant (~7 days, model-specific) | 0.114 | 0.891 | 0.0745 | 0.217 | –
in vitro model: butyrate, time point: terminal (~4-5 doublings, model-specific) | 0.0865 | 0.932 | 0.0716 | 0.189 | 0.638
in vitro model: cholesterol 0.05 mM, time point: constant (~7 days, model-specific) | 0.16 | 0.785 | -0.0274 | – | –
in vitro model: cholesterol 0.05 mM, time point: terminal (~4-5 doublings, model-specific) | 0.168 | 0.977 | -0.696 | -1.33 | –
in vitro model: cholesterol-high 0.2 mM, time point: constant (~7 days, model-specific) | 0.101 | 0.944 | -0.667 | 0.563 | –
in vitro model: cholesterol-high 0.2 mM, time point: terminal (~4-5 doublings, model-specific) | 0.11 | 1 | -0.959 | 0.303 | 0.985
in vitro model: dormancy (butyrate + nitrate, low O2), time point: constant (~7 days, model-specific) | 0.107 | 0.75 | 0.388 | 0.819 | –
in vitro model: dormancy (butyrate + nitrate, low O2), time point: terminal (~4-5 doublings, model-specific) | 0.102 | 0.964 | 0.0543 | 0.154 | 0.627
in vitro model: standard 7H9 glycerol, time point: constant = terminal | 0.071 | 0.86 | 0.221 | 1.2 | –
in vitro model: valerate, time point: constant (~7 days, model-specific) | 0.0934 | 0.864 | 0.000637 | 0.255 | –
in vitro model: valerate, time point: terminal (~4-5 doublings, model-specific) | 0.0462 | 0.909 | 0.102 | 0.697 | –

CC[C@@H](CO)NCCN[C@@H](CC)CO [ethambutol] + CC(=O)NC[C@H]1CN(c2ccc(N3CCOCC3)c(F)c2)C(=O)O1 [linezolid] + O=[N+]([O-])c1cn2c(n1)OC[C@@H](OCc1ccc(OC(F)(F)F)cc1)C2 [pretomanid]
Details | AUC25, [4] | Einf, [3] | GRinf, [5] | total FIC50, [1] | total FIC90, [2]
in vitro model: acidic pH 5.7, time point: constant (~7 days, model-specific) | 0.134 | 0.896 | -0.388 | 0.236 | –
in vitro model: acidic pH 5.7, time point: terminal (~4-5 doublings, model-specific) | 0.0878 | 0.967 | -0.322 | 1.28 | 1.01
in vitro model: intracellular J774, time point: constant = terminal | – | 0.975 | -0.561 | – | 0.0435

Details | AUC25, [4] | Einf, [3] | GRinf, [5] | total FIC50, [1] | total FIC90, [2]
in vitro model: butyrate, time point: constant (~7 days, model-specific) | 0.0842 | 0.911 | 0.0181 | 0.478 | –
in vitro model: butyrate, time point: terminal (~4-5 doublings, model-specific) | 0.0626 | 0.944 | 0.0489 | 0.404 | 0.144
in vitro model: cholesterol 0.05 mM, time point: constant (~7 days, model-specific) | 0.12 | 0.731 | -0.14 | -0.149 | –
in vitro model: cholesterol 0.05 mM, time point: terminal (~4-5 doublings, model-specific) | 0.146 | 0.921 | -0.207 | -1.06 | –
in vitro model: cholesterol-high 0.2 mM, time point: constant (~7 days, model-specific) | 0.0978 | 0.905 | -0.175 | 0.567 | –
in vitro model: cholesterol-high 0.2 mM, time point: terminal (~4-5 doublings, model-specific) | 0.104 | 1 | -0.831 | 0.339 | 0.921
in vitro model: dormancy (butyrate + nitrate, low O2), time point: constant (~7 days, model-specific) | 0.142 | 0.891 | -0.209 | 1.03 | –
in vitro model: dormancy (butyrate + nitrate, low O2), time point: terminal (~4-5 doublings, model-specific) | 0.0963 | 0.981 | -0.881 | -0.0848 | -0.19
in vitro model: standard 7H9 glycerol, time point: constant = terminal | 0.0762 | 0.904 | 0.0621 | 0.648 | –
in vitro model: valerate, time point: constant (~7 days, model-specific) | 0.153 | 0.901 | -0.16 | -0.171 | –
in vitro model: valerate, time point: terminal (~4-5 doublings, model-specific) | 0.115 | 0.923 | -0.0362 | -0.419 | 2.13

CC[C@@H](CO)NCCN[C@@H](CC)CO [ethambutol] + CO[C@H]1/C=C/O[C@@]2(C)Oc3c(C)c(O)c4c(O)c(c(/C=N/N5CCN(C6CCCC6)CC5)c(O)c4c3C2=O)NC(=O)/C(C)=C\C=C\[C@H](C)[C@H](O)[C@@H](C)[C@@H](O)[C@@H](C)[C@H](OC(C)=O)[C@@H]1C [rifapentine] + CO[C@H]1/C=C/O[C@@]2(C)Oc3c(C)c(O)c4c(O)c(c(/C=N/N5CCN(C)CC5)c(O)c4c3C2=O)NC(=O)/C(C)=C\C=C\[C@H](C)[C@H](O)[C@@H](C)[C@@H](O)[C@@H](C)[C@H](OC(C)=O)[C@@H]1C [rifampicin]
Details | AUC25, [4] | Einf, [3] | GRinf, [5] | total FIC50, [1] | total FIC90, [2]
in vitro model: acidic pH 5.7, time point: constant (~7 days, model-specific) | 0.0788 | 0.863 | -0.0676 | -0.0556 | –
in vitro model: acidic pH 5.7, time point: terminal (~4-5 doublings, model-specific) | 0.0407 | 0.966 | -0.0521 | 0.0683 | -0.673
in vitro model: intracellular J774, time point: constant = terminal | – | 0.964 | -0.359 | – | -2.2

Details | AUC25, [4] | Einf, [3] | GRinf, [5] | total FIC50, [1] | total FIC90, [2]
in vitro model: butyrate, time point: constant (~7 days, model-specific) | 0.0871 | 0.924 | -0.00846 | 0.0694 | –
in vitro model: butyrate, time point: terminal (~4-5 doublings, model-specific) | 0.0718 | 0.965 | -0.0114 | 0.0725 | -0.469
in vitro model: cholesterol 0.05 mM, time point: constant (~7 days, model-specific) | 0.12 | 0.674 | -0.208 | -0.109 | –
in vitro model: cholesterol 0.05 mM, time point: terminal (~4-5 doublings, model-specific) | 0.0846 | 0.884 | -0.0993 | -0.106 | –
in vitro model: cholesterol-high 0.2 mM, time point: constant (~7 days, model-specific) | 0.0408 | 0.947 | -0.442 | 0.69 | –
in vitro model: cholesterol-high 0.2 mM, time point: terminal (~4-5 doublings, model-specific) | 0.0471 | 1 | -0.703 | 0.74 | 0.613
in vitro model: dormancy (butyrate + nitrate, low O2), time point: constant (~7 days, model-specific) | 0.066 | 0.854 | 0.363 | -0.0614 | –
in vitro model: dormancy (butyrate + nitrate, low O2), time point: terminal (~4-5 doublings, model-specific) | 0.0493 | 0.981 | -0.104 | 0.286 | -0.687
in vitro model: standard 7H9 glycerol, time point: constant = terminal | 0.0475 | 0.909 | 0.0838 | 0.231 | –
in vitro model: valerate, time point: constant (~7 days, model-specific) | 0.0622 | 0.889 | 0.0114 | -0.0551 | –
in vitro model: valerate, time point: terminal (~4-5 doublings, model-specific) | 0.0314 | 0.936 | 0.0132 | 0.133 | -0.823
